From ChEMBL document CHEMBL1201862, “PubChem BioAssay data set” (2004)
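Protocol summary: plate cells (96-well), add compound at 5 concentrations, incubate 48 h, interpolate endpoints linearly. GI50: concentration for 50% inhibition of growth.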 Activity calls are given as the source filed them. Cut-off read from the data, not from the text of the source: active = GI50 up to about 1.1 µM and inactive = higher.

Experiments:
Test in all cases: NCI tumour cell line growth inhibition, 48 h
786-0 = system: 786-0
A498 = system: A498
A549 = system: A549
ACHN = system: ACHN
CAKI-1 = system: CAKI-1
CCRF-CEM = system: CCRF-CEM
COLO 205 = system: COLO 205
DLD-1 = system: DLD-1
DMS-114 = system: DMS-114
DMS-273 = system: DMS-273
EKVX = system: EKVX
HCC 2998 = system: HCC 2998
HCT-116 = system: HCT-116
HCT-15 = system: HCT-15
HL-60 = system: HL-60
HOP-18 = system: HOP-18
HOP-62 = system: HOP-62
HOP-92 = system: HOP-92
HT-29 = system: HT-29
IGROV-1 = system: IGROV-1
K562 = system: K562
KM-20L2 = system: KM-20L2
KM12 = system: KM12
LOX IMVI = system: LOX IMVI
LXFL 529 = system: LXFL 529
M14 = system: M14
M19-MEL = system: M19-MEL
MOLT-4 = system: MOLT-4
Malme-3M = system: Malme-3M
NCI-H226 = system: NCI-H226
NCI-H23 = system: NCI-H23
NCI-H460 = system: NCI-H460
NCI-H522 = system: NCI-H522
OVCAR-3 = system: OVCAR-3
OVCAR-4 = system: OVCAR-4
OVCAR-5 = system: OVCAR-5
OVCAR-8 = system: OVCAR-8
RPMI-8226 = system: RPMI-8226
RXF 393 = system: RXF 393
RXF 631 = system: RXF 631
SF-268 = system: SF-268
SF-295 = system: SF-295
SF-539 = system: SF-539
SK-MEL-28 = system: SK-MEL-28
SK-MEL-2 = system: SK-MEL-2
SK-MEL-5 = system: SK-MEL-5
SK-OV-3 = system: SK-OV-3
SN12C = system: SN12C
SNB-19 = system: SNB-19
SNB-75 = system: SNB-75
SNB-78 = system: SNB-78
SR = system: SR
SW-620 = system: SW-620
TK-10 = system: TK-10
U-251 = system: U-251
UACC-257 = system: UACC-257
UACC-62 = system: UACC-62
UO-31 = system: UO-31
BT-549 = system: BT-549
DU-145 = system: DU-145
Hs-578T = system: Hs-578T
MCF7 = system: MCF7
MDA-MB-231 = system: MDA-MB-231
MDA-MB-435 = system: MDA-MB-435
MDA-N = system: MDA-N
NCI/ADR-RES = system: NCI/ADR-RES
PC-3 = system: PC-3
T47D = system: T47D
XF498 = system: XF498

NS(=O)(=O)c1ccc(NC(=O)COC(=O)c2cccc3c(=O)c4ccccc4[nH]c23)cc1
GI50 (786-0): 19.2 µM (inactive)
GI50 (A498): 17.9 µM (inactive)
GI50 (A549): 46.9 µM (inactive)
GI50 (ACHN): 26.5 µM (inactive)
GI50 (CAKI-1): > 52.5 µM (inactive)
GI50 (CCRF-CEM): 38.5 µM (inactive)
GI50 (COLO 205): > 88.3 µM (inactive)
GI50 (DLD-1): 45 µM (inactive)
GI50 (DMS-114): 18.9 µM (inactive)
GI50 (DMS-273): 37.2 µM (inactive)
GI50 (EKVX): 38.2 µM (inactive)
GI50 (HCC 2998): 39.4 µM (inactive)
GI50 (HCT-116): 17.7 µM (inactive)
GI50 (HCT-15): 53.5 µM
GI50 (HL-60): > 100 µM (inactive)
GI50 (HOP-18): 20.1 µM (inactive)
GI50 (HOP-62): 18.5 µM (inactive)
GI50 (HOP-92): 16.5 µM (inactive)
GI50 (HT-29): > 100 µM (inactive)
GI50 (IGROV-1): 21.5 µM (inactive)
GI50 (K562): > 100 µM (inactive)
GI50 (KM-20L2): > 100 µM (inactive)
GI50 (KM12): 31.6 µM (inactive)
GI50 (LOX IMVI): 13.6 µM (inactive)
GI50 (LXFL 529): 7.93 µM (inactive)
GI50 (M14): 61.4 µM (inactive)
GI50 (M19-MEL): 31.3 µM (inactive)
GI50 (MOLT-4): 14.3 µM (inactive)
GI50 (Malme-3M): 17.9 µM (inactive)
GI50 (NCI-H226): 19.6 µM (inactive)
GI50 (NCI-H23): 21.4 µM (inactive)
GI50 (NCI-H460): 33.8 µM (inactive)
GI50 (NCI-H522): 12.3 µM (inactive)
GI50 (OVCAR-3): 20.5 µM (inactive)
GI50 (OVCAR-4): 25.5 µM (inactive)
GI50 (OVCAR-5): > 56.5 µM (inactive)
GI50 (OVCAR-8): 20.7 µM (inactive)
GI50 (RPMI-8226): > 100 µM (inactive)
GI50 (RXF 393): 17.5 µM (inactive)
GI50 (RXF 631): 33.1 µM (inactive)
GI50 (SF-268): 15.9 µM (inactive)
GI50 (SF-295): 23.9 µM (inactive)
GI50 (SF-539): 16.3 µM (inactive)
GI50 (SK-MEL-28): 50.8 µM (inactive)
GI50 (SK-MEL-2): 19.5 µM (inactive)
GI50 (SK-MEL-5): > 83.4 µM (inactive)
GI50 (SK-OV-3): 18.9 µM (inactive)
GI50 (SN12C): 24 µM (inactive)
GI50 (SNB-19): 17 µM (inactive)
GI50 (SNB-75): 14.4 µM (inactive)
GI50 (SNB-78): 17.4 µM (inactive)
GI50 (SR): 4.03 µM (inactive)
GI50 (SW-620): 52.7 µM (inactive)
GI50 (TK-10): 24.7 µM (inactive)
GI50 (U-251): 14.4 µM (inactive)
GI50 (UACC-257): 57.3 µM (inactive)
GI50 (UACC-62): 14.6 µM (inactive)
GI50 (UO-31): 23.3 µM (inactive)

COc1cccc2c1C(=O)OC2c1cccc2ccccc12 (stereo unspecified)
GI50 (786-0): 50.8 µM (inactive)
GI50 (A498): > 52.5 µM (inactive)
GI50 (A549): > 100 µM (inactive)
GI50 (ACHN): > 100 µM (inactive)
GI50 (BT-549): > 100 µM (inactive)
GI50 (CAKI-1): > 100 µM (inactive)
GI50 (CCRF-CEM): > 100 µM (inactive)
GI50 (COLO 205): > 100 µM (inactive)
GI50 (DLD-1): > 100 µM (inactive)
GI50 (DMS-114): > 100 µM (inactive)
GI50 (DMS-273): > 100 µM (inactive)
GI50 (DU-145): > 100 µM (inactive)
GI50 (EKVX): > 100 µM (inactive)
GI50 (HCC 2998): > 100 µM (inactive)
GI50 (HCT-116): > 96.6 µM (inactive)
GI50 (HCT-15): > 100 µM
GI50 (HL-60): > 46.6 µM (inactive)
GI50 (HOP-18): > 85.5 µM (inactive)
GI50 (HOP-62): 36 µM (inactive)
GI50 (HOP-92): 30.9 µM (inactive)
GI50 (HT-29): > 100 µM (inactive)
GI50 (Hs-578T): 33 µM (inactive)
GI50 (IGROV-1): > 100 µM (inactive)
GI50 (K562): > 100 µM (inactive)
GI50 (KM-20L2): > 100 µM (inactive)
GI50 (KM12): > 100 µM (inactive)
GI50 (LOX IMVI): > 100 µM (inactive)
GI50 (LXFL 529): > 100 µM (inactive)
GI50 (M14): > 100 µM (inactive)
GI50 (M19-MEL): > 100 µM (inactive)
GI50 (MCF7): 31.6 µM (inactive)
GI50 (MDA-MB-231): 36.4 µM (inactive)
GI50 (MDA-MB-435): > 100 µM (inactive)
GI50 (MDA-N): > 100 µM (inactive)
GI50 (MOLT-4): > 100 µM (inactive)
GI50 (Malme-3M): > 100 µM (inactive)
GI50 (NCI-H226): 92.9 µM (inactive)
GI50 (NCI-H23): > 100 µM (inactive)
GI50 (NCI-H460): 98.9 µM (inactive)
GI50 (NCI-H522): > 100 µM (inactive)
GI50 (NCI/ADR-RES): 53.3 µM (inactive)
GI50 (OVCAR-3): 74.8 µM (inactive)
GI50 (OVCAR-4): 37.8 µM (inactive)
GI50 (OVCAR-5): > 100 µM (inactive)
GI50 (OVCAR-8): 56.4 µM (inactive)
GI50 (PC-3): > 100 µM (inactive)
GI50 (RPMI-8226): > 100 µM (inactive)
GI50 (RXF 393): 31.5 µM (inactive)
GI50 (SF-268): 72.8 µM (inactive)
GI50 (SF-295): 33.6 µM (inactive)
GI50 (SF-539): 63.7 µM (inactive)
GI50 (SK-MEL-28): > 100 µM (inactive)
GI50 (SK-MEL-2): > 100 µM (inactive)
GI50 (SK-MEL-5): > 100 µM (inactive)
GI50 (SK-OV-3): > 73.6 µM (inactive)
GI50 (SN12C): > 100 µM (inactive)
GI50 (SNB-19): 61.2 µM (inactive)
GI50 (SNB-75): 23.8 µM (inactive)
GI50 (SNB-78): > 100 µM (inactive)
GI50 (SR): > 100 µM (inactive)
GI50 (SW-620): > 100 µM (inactive)
GI50 (T47D): > 100 µM (inactive)
GI50 (TK-10): > 73.3 µM (inactive)
GI50 (U-251): 67.5 µM (inactive)
GI50 (UACC-257): > 91 µM (inactive)
GI50 (UACC-62): > 100 µM (inactive)
GI50 (UO-31): > 100 µM (inactive)
GI50 (XF498): 34.8 µM (inactive)
